In patent US20240360143A1, “[1,2,4]TRIAZOLO[4,3-A]PYRIMIDIN-7(8H)-ONE AS MITOCHONDRIAL PYRUVATE CARRIER INHIBITORS FOR USE IN THE TREATMENT OF CANCER” (MPC THERAPEUTICS SA, priority 2021, published 2024):

System: CD8 T cells (OT1 splenocytes)
Test: In vitro priming of CD8 T cells (OT1 splenocytes), memory marker expression by flow cytometry
Type: cell-based, mouse
Conditions: day 7, highest doses
Description: OT1 splenocytes were cultured for 3 days at a concentration of 10^6 cells per mL in RPMI medium (Gibco 61870-01) supplemented with 10% FBS, (Gibco 10270-106), 1% Penicillin/Streptomycin (Gibco 15070-063), 50 μM ß-mercaptoethanol, 1% HEPES (Gibco 15630-080), 1× Non-essential amino acids (Gibco 11140-035), 1% L-glutamine (Gibco 25030-081), 1 mM Sodium Pyruvate (Gibco 11360-039). Cells were additionally supplemented with hIL-2 100 U/ml (Glaxo-IMB), ovalbumin N4 peptide (257-264) 1 μg/ml (model peptide antigen from ovalbumin) and either different concentrations of Compound 45 or 47 or with their solvent DMSO as a control. At day 3, splenocytes were collected, washed and split, and cells were cultured for 4 additional days with 100 U/ml hIL-2 and hIL-7 (Peprotech 200-07) supplemented either with Compound 45 or 47 or DMSO. At day 7, flow cytometry analyses were performed for surface marker expression.
To evaluate the effects of MPC inhibition on T cell differentiation, OTI splenocytes were cultured in the presence of 1 μg/ml ovalbumin-derived N4 peptide, 100 IU/ml recombinant human IL-2 (rhIL-2) and the MPC inhibitors Compound 45 or 47 or control DMSO for 3 days. The cells were cultured for 4 more days in the presence of 100 IU/ml IL-2 and 10 ng/ml rhIL-7 (FIG. 1A) and the inhibitors or DMSO. When analyzing the surface expression of the central memory marker CD62L (FIG. 1B) and the pro-survival receptor CD127 (FIG. 1C) by flow cytometry on day 7, an increase in cells treated with the highest doses of compounds of the invention was observed compared to DMSO.

O=c1cc(Cc2ccccc2)n2c(SCc3c(F)cccc3Cl)nnc2[nH]1 [Compound 45, 5-benzyl-3-[(2-chloro-6-fluorobenzyl)sulfanyl][1,2,4]triazolo[4,3-a]pyrimidin-7 (8H)-one]
cells positive for central memory marker CD62L (vs DMSO (FIG. 1B)): increase
cells positive for pro-survival receptor CD127 (vs DMSO (FIG. 1C)): increase
